Measured values as given in patent US10973819B2, “Small molecules inhibitors of RAD51” (The University of Chicago, priority 2016, dated 2021).
Entries after “also recorded” stand apart in the source; their conditions may differ. Where two headings read alike, the source gives them in different places. Blank lines part the entries; values can stand above or below the compound they belong to.

How the values were obtained:
[1] = target: T1, RAD51 (Homo sapiens, UniProt Q06609); assay: Gel-based D-loop assay; type: biochemical; conditions: for IC50: read-out: D-Loops IC50; for D-loop inhibitory activity, in words: summary of Tables 2 and 3
T1 sequence (Q06609 1-339): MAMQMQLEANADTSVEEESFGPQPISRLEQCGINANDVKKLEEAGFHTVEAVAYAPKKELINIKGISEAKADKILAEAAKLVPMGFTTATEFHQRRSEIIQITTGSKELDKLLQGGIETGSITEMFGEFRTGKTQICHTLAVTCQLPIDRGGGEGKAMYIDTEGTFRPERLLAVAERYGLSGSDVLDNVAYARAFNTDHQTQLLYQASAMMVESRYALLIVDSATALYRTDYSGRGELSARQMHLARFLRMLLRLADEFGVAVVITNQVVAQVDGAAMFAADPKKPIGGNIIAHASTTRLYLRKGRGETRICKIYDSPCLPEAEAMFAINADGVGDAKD
Description: Human RAD51 in reaction buffer was combined with compound in […] DMSO, incubated at 37° C. for 10 min, and then 1 μl of 5′-^32P-labeled 90-mer ssDNA (5′-[…]) with homology to the plasmid pRS306 ^34 was added and the reaction was incubated at 37° C. for an additional 5 minutes. 1 μl of supercoiled pRS306 was then added to the reaction and incubated at 37° C. for 20 minutes; at this point the reaction consisted of 25 mM HEPES-NaOH (pH 7.0), 1 mM ATP, 1 mM MgCl2, 1 mM DTT, 1.5 μM BSA, 4.5% DMSO, 0.5 μM RAD51, 11 mM NaCl, 1% glycerol, 20 nM ssDNA, and 5 nM pRS306. The reactions were de-proteinized with 0.8% SDS and 0.8 mg/ml proteinase K, mixed with gel loading buffer, and run on a 0.9% agarose/1×TAE gel, which was dried and exposed to a phosphor screen overnight and imaged on a Storm 860 PhosphorImager. Compound IC50 values were obtained by least-squares regression fitting of appropriate linear, log, or sigmoid dose-response models to the data, with the standard error indicated.
To improve upon the D-loop inhibitory activity, medicinal chemical studies were undertaken to optimize 8. First, different functional groups were appended to rings A and B as substituents, including alkyl groups of different sizes, electron withdrawing/donating groups, and hydrogen bond donor/acceptor groups. Next, replacement of the phenyl ring B with different heterocycles or other saturated/unsaturated rings was investigated in order to probe its role. For each of the prepared compounds, the gel-based D-loop assay and the microplate-based DNA binding assay were used to characterize the biochemical activities.

[2] = target: T1, RAD51; assay: Fluorescence polarization-based DNA binding assay (RAD51-ssDNA binding); type: biochemical; conditions: for IC50 / ssDNA binding IC50: Stim = stimulator; for Emax: read-out: ssDNA binding Max effect; for influence on RAD51-ssDNA binding, in words: summary of Tables 2 and 3
Description: The fluorescence polarization-based DNA binding assay and purification of human RAD51 used for this assay was performed as previously described with a few modifications.^23 Reactions were carried out in black 384-well polystyrene plates. In each well, RAD51 protein was combined with reaction buffer and varying concentrations of compound in DMSO in an initial volume of 40 μl and incubated at 37° C. for 40 minutes. Then, 10 μl of reaction buffer containing fluorescently-labeled ssDNA substrate (5′-Alexa488-oligo-dT45) was added and the reaction incubated at 37° C. for another 40 minutes, after which the plate was read on a Tecan Infinite 200 Pro plate reader equipped with two sets of 485±25 nm/535±35 nm with parallel or perpendicularly-oriented polarization filters. In both steps of the reaction setup, buffer components were maintained at 20 mM HEPES-NaOH (pH 7.5), 2 mM ATP, 10 mM MgCl2, 0.1 mM TCEP-HCl (tris(2-carboxyethyl)phosphine), and 0.25 μM BSA. The final reaction contained 4% DMSO, 0.2 μM RAD51, 30 mM NaCl, 2% glycerol, and 2.22 nM ssDNA substrate. Compound IC50 values were obtained by least-squares regression fitting of appropriate linear, log, or sigmoid dose-response models to the data, with the standard error indicated. […]

[3] = Table 2, cells marked ↓: compound inhibits RAD51-ssDNA binding
[4] = Table 3, cells marked ↓: compound inhibits RAD51-ssDNA binding
[5] = Table 2, cells marked ↑: compound stimulates RAD51-ssDNA binding
[6] = Table 3, cells marked ↑: compound stimulates RAD51-ssDNA binding

Structure (SMILES): c1cncc(-c2nc3ccccc3n3cccc23)c1 [Compound 11a, 4-(Pyridin-3-yl)pyrrolo[1,2-a]quinoxaline]
IC50 ([1]; Table 2): 71.7 ± 18.1 µM
D-loop inhibitory activity, in words [1]: moderate
IC50 ([2]; Table 2): > 100 µM
Emax [2, 3]: 6 ± 10%

Structure (SMILES): Nc1ccc(-c2nc3cc(F)c(F)cc3n3cccc23)cc1 [Compound 12l, 4-(7,8-Difluoropyrrolo[1,2-a]quinoxalin-4-yl)aniline]
IC50 ([1]; Table 3): 34 ± 2.9 µM
IC50 ([2]; Table 3): > 100 µM
Emax [2, 4]: 42 ± 8%

Structure (SMILES): C1=C(c2nc3ccccc3n3cccc23)CCCC1 [Compound 11c, 4-(Cyclohex-1-en-1-yl)pyrrolo[1,2-a]quinoxaline]
D-loop inhibitory activity, in words [1]: weak
ssDNA binding IC50 ([2]; Table 2): Stim
Emax [2, 5]: 42 ± 17%
influence on RAD51-ssDNA binding, in words [2]: modest influence

Structure (SMILES): Oc1ccc(-c2nc3cc(O)ccc3n3cccc23)cc1 [Compound 12d, 4-(4-Hydroxyphenyl)pyrrolo[1,2-a]quinoxalin-7-ol]
IC50 ([1]; Table 3): 27.6 ± 4.9 µM
IC50 ([2]; Table 3): > 100 µM
Emax [2, 4]: 72 ± 11%

Structure (SMILES): CCCOc1ccc2c(c1)nc(-c1ccc(N)cc1)c1cccn12 [Compound 15a, 4-(7-Propoxypyrrolo[1,2-a]quinoxalin-4-yl)aniline]
IC50 ([1]; Table 3): 46.1 ± 2.8 µM
ssDNA binding IC50 ([2]; Table 3): Stim
Emax [2, 6]: 117 ± 18%
influence on RAD51-ssDNA binding, in words [2]: stimulators

Structure (SMILES): CN(C)c1ccc(-c2nc3cc(F)c(F)cc3n3cccc23)cc1 [Compound 12m, 4-(7,8-Difluoropyrrolo[1,2-a]quinoxalin-4-yl)-N,N-dimethylaniline]
D-loop inhibitory activity, in words [1]: nearly absent
ssDNA binding IC50 ([2]; Table 3): Stim
Emax [2, 6]: 65 ± 22%

Structure (SMILES): COc1ccc2c(c1)nc(-c1ccc(N(C)C)cc1)c1cccn12 [Compound 8, 4-(7-Methoxypyrrolo[1,2-a]quinoxalin-4-yl)-N,N-dimethylaniline]
D-Loops Max inhibition effect ([1]; Table 1): 67%
IC50 ([1]; Table 1): 13 µM
ssDNA binding IC50 ([2]; Table 1): Stim
Emax ([2]; Table 1, cells marked ↑: compound stimulates RAD51-ssDNA binding): 40 ± 28%

Structure (SMILES): Nc1ccc(-c2nc3cc(OCCF)ccc3n3cccc23)cc1 [Compound 15b, 4-(7-(2-Fluoroethoxy)pyrrolo[1,2-a]quinoxalin-4-yl)aniline]
IC50 ([1]; Table 3): 20 ± 4.1 µM
ssDNA binding IC50 ([2]; Table 3): Stim
Emax [2, 6]: 79 ± 23%
influence on RAD51-ssDNA binding, in words [2]: stimulators; also recorded: modest effects

Structure (SMILES): CN(C)c1ccc(-c2nc3cc(F)ccc3n3cccc23)cc1 [Compound 12j, 4-(7-Fluoropyrrolo[1,2-a]quinoxalin-4-yl)-N,N-dimethylaniline]
D-loop inhibitory activity, in words [1]: nearly absent
ssDNA binding IC50 ([2]; Table 3): Stim
Emax [2, 6]: 57 ± 28%

Structure (SMILES): O=[N+]([O-])c1ccc(-c2nc3cc(O)ccc3n3cccc23)cc1 [Compound 12e, 4-(4-Nitrophenyl)pyrrolo[1,2-a]quinoxalin-7-ol]
IC50 ([2]; Table 3): 57.8 ± 3 µM
Emax [2, 4]: 92 ± 21%

Structure (SMILES): Nc1ccc(-c2nc3cc(F)ccc3n3cccc23)cc1 [Compound 12i, 4-(7-Fluoropyrrolo[1,2-a]quinoxalin-4-yl)aniline]
IC50 ([1]; Table 3): 25 ± 5.1 µM
IC50 ([2]; Table 3): 81.5 ± 16.6 µM
Emax [2, 4]: 60 ± 18%

Structure (SMILES): COc1ccc2c(c1)nc(-c1ccc([N+](=O)[O-])cc1)c1cccn12 [Compound 12b, 7-Methoxy-4-(4-nitrophenyl)pyrrolo[1,2-a]quinoxaline]
ssDNA binding IC50 ([2]; Table 3): Stim
Emax [2, 6]: 105 ± 47%
influence on RAD51-ssDNA binding, in words [2]: stimulators

Structure (SMILES): c1ccc2c(-c3nc4ccccc4n4cccc34)cccc2c1 [Compound 11d, 4-(Naphthalen-1-yl)pyrrolo[1,2-a]quinoxaline]
D-loop inhibitory activity, in words [1]: weak
ssDNA binding IC50 ([2]; Table 2): Stim
Emax [2, 5]: 56 ± 31%
influence on RAD51-ssDNA binding, in words [2]: modest influence

Structure (SMILES): COc1ccc2c(c1)nc(-c1ccc(N)cc1)c1cccn12 [Compound 12c, 4-(7-Methoxypyrrolo[1,2-a]quinoxalin-4-yl)aniline]
D-Loops Max inhibition effect ([1]; Table 3): 100 ± 4%
IC50 ([1]; Table 3): 13.2 µM
IC50 ([2]; Table 3): > 100 µM
Emax [2, 4]: 29 ± 8%
influence on RAD51-ssDNA binding, in words [2]: only weakly influenced

Structure (SMILES): COc1ccc2c(c1)nc(-c1cccnc1)c1cccn12 [Compound 13a, 7-Methoxy-4-(pyridin-3-yl)pyrrolo[1,2-a]quinoxaline]
D-Loops Max inhibition effect ([1]; Table 3): 74 ± 5%
IC50 ([1]; Table 3): 38.6 ± 6.2 µM
Emax [2, 4]: 16 ± 28%

Structure (SMILES): CN(C)c1ccc(-c2nc3cc(OC(C)(C)C(N)=O)ccc3n3cccc23)cc1 [Compound 16, 2-((4-(4-(Dimethylamino)phenyl)pyrrolo[1,2-a]quinoxalin-7-yl)oxy)-2-methylpropanamide]
IC50 ([1]; Table 3): > 100 µM
ssDNA binding IC50 ([2]; Table 3): Stim
Emax [2, 6]: 131 ± 28%
influence on RAD51-ssDNA binding, in words [2]: stimulators

Structure (SMILES): O=[N+]([O-])c1cccc(-c2nc3ccccc3n3cccc23)c1 [Compound 9b, 4-(3-Nitrophenyl)pyrrolo[1,2-a]quinoxaline]
Emax [2, 3]: 52 ± 14%
influence on RAD51-ssDNA binding, in words [2]: modest influence

Structure (SMILES): Oc1ccc2c(c1)nc(-c1cccnc1)c1cccn12 [Compound 13b, 4-(Pyridin-3-yl)pyrrolo[1,2-a]quinoxalin-7-ol]
D-Loops Max inhibition effect ([1]; Table 3): 53 ± 30%
Emax [2, 4]: 87 ± 10%

The next lines start with results.

IC50 ([1]; Table 2): 27.6 ± 6 µM
ssDNA binding IC50 ([2]; Table 2): Stim
Emax [2, 5]: 88 ± 22%
influence on RAD51-ssDNA binding, in words [2]: modest influence
Structure (SMILES): CN(C)c1ccc(-c2nc3ccccc3n3cccc23)cc1 [Compound 9a, N,N-dimethyl-4-(pyrrolo[1,2-a]quinoxalin-4-yl)aniline]

IC50 ([1]; Table 2): 22.1 µM
IC50 ([2]; Table 2): > 100 µM
Emax [2, 3]: 18 ± 11%
Structure (SMILES): Nc1ccc(-c2nc3ccccc3n3cccc23)cc1 [Compound 9g, 4-(Pyrrolo[1,2-a]quinoxalin-4-yl)aniline]

ssDNA binding IC50 ([2]; Table 2): Stim
Emax [2, 5]: 30 ± 21%
Structure (SMILES): FC(F)(F)Oc1ccc(-c2nc3ccccc3n3cccc23)cc1 [Compound 9e, 4-(4-(Trifluoromethoxy)phenyl)pyrrolo[1,2-a]quinoxaline]

D-Loops Max inhibition effect ([1]; Table 2): 68 ± 7%
IC50 ([1]; Table 2): 27.2 ± 3 µM
Emax [2, 3]: 11 ± 19%
Structure (SMILES): c1ccc2c(c1)nc(-c1ccc(N3CCOCC3)cc1)c1cccn12 [Compound 9j, 4-(4-(Pyrrolo[1,2-a]quinoxalin-4-yl)phenyl)morpholine]

IC50 ([1]; Table 2): 79.4 ± 6 µM
D-loop inhibitory activity, in words [1]: moderate
Emax [2, 3]: 7 ± 38%
Structure (SMILES): c1ccc2c(c1)nc(-c1ccncc1)c1cccn12 [Compound 11b, 4-(Pyridin-4-yl)pyrrolo[1,2-a]quinoxaline]

D-Loops Max inhibition effect ([1]; Table 3): 13 ± 12%
IC50 ([1]; Table 3): > 100 µM
IC50 ([2]; Table 3): 35 ± 14 µM
Emax [2, 4]: 100 ± 18%
Structure (SMILES): COc1ccc2c(c1)nc(-c1ccc(O)cc1)c1cccn12 [Compound 12a, 4-(7-Methoxypyrrolo[1,2-a]quinoxalin-4-yl)phenol]
influence on RAD51-ssDNA binding, in words [2]: relatively strong ssDNA binding inhibition

IC50 ([1]; Table 2): 91.1 ± 10.3 µM
Emax [2, 3]: 11 ± 9%
Structure (SMILES): Nc1cccc(-c2nc3ccccc3n3cccc23)c1 [Compound 9c, 3-(Pyrrolo[1,2-a]quinoxalin-4-yl)aniline]

Emax [2, 3]: 14 ± 16%
Structure (SMILES): Oc1ccc(-c2nc3ccccc3n3cccc23)cc1 [Compound 9d]

Emax [2, 3]: 16 ± 13%
Structure (SMILES): O=[N+]([O-])c1ccc(-c2nc3ccccc3n3cccc23)cc1 [Compound 9f, 4-(4-Nitrophenyl)pyrrolo[1,2-a]quinoxaline]

ssDNA binding IC50 ([2]; Table 2): Stim
Emax [2, 5]: 69 ± 35%
influence on RAD51-ssDNA binding, in words [2]: modest influence
Structure (SMILES): c1ccc2c(c1)nc(-c1ccc(N3CCCC3)cc1)c1cccn12 [Compound 9i, 4-(4-(Pyrrolidin-1-yl)phenyl)pyrrolo[1,2-a]quinoxaline]
